Results on 10 compounds are retold here after patent publication US10322191B2, “Targeted conjugates and particles and formulations thereof” (TARVEDA THERAPEUTICS, INC., priority 2014, dated 2019).

One data set concerns human NCI-H69 SCLC. Nature of the data set: Tumor growth of human NCI-H69 SCLC in mice. The format is in vivo, NCR nude mice. The settings on record: Conjugate 10 and Conjugate 10 NP6 2 mg/kg, DM1 0.8 mg/kg, once weekly for two doses; up to 100 days, FIG. 4. The protocol: Applicants assessed the activity of a conjugate and a nanoparticle formulation of the conjugate in vivo. In these experiments, the ability of compounds to affect the growth of human NCI-H69 SCLC was tested. For the in vivo study, 8 week old female NCR nude mice were inoculated subcutaneously into the right flank with 2 million cells in 1:1 RPMI 1640 (Invitrogen, Carlsbad, Calif.)/Matrigel® (BD Biosciences, San Jose, Calif.). Tumor measurements were taken twice weekly, using vernier calipers. Tumor volume was calculated using the formula: V=0.5×width×width×length.
When tumors approached a volume of 200 mm^3, mice were randomized into four groups of ten animals. Mice were treated with vehicle control (10% propylene glycol in water for injection), Conjugate 10 at 2 mg/kg (10% propylene glycol in water for injection), Conjugate 10 NP6 nanoparticle at 2 mg/kg (10% Sucrose), or DM1 at 0.8 mg/kg (10% propylene glycol in water for injection). Mice were dosed once weekly for two doses. Final tumor volumes were analyzed using with a one-way analysis of variance and Tukey multiple comparison test.
Tumor volume study was repeated with three doses for vehicle, Conjugate 10 (0.7 mg/kg each), and Conjugate 10 NP6 (0.7 mg/kg each). Tumor volumes were tracked for 30 days.

For data set [1], the system named is NCI-H69 SCLC (small cell lung cancer) tumors. Nature of the data set: H69 tumor DM-1 levels by LC/MS-MS. The format is in vivo, mice. The settings on record: 24 hour time point; dosed at 1 mg/kg (conjugates, nanoparticles) or 0.4 mg/kg for DM-1. The protocol:
To examine the ability of conjugates of the present invention to accumulate in tumors, a murine cancer model was used. All mice were treated in accordance with the OLAW Public Health Service Policy on Human Care and Use of Laboratory Animals and the ILAR Guide for the Care and Use of Laboratory Animals. All in vivo studies were conducted following the protocols approved by the Blend Therapeutics Institutional Animal Care and Use Committee. Animals were inoculated with 2.5×10{circumflex over (0)}6 NCI-H69 SCLC (small cell lung cancer) cells in 1:1 RPMI 1640 (Invitrogen, Carlsbad, Calif.)/Matrigel® (BD Biosciences, San Jose, Calif.) via subcutaneous injection to the right flank. Tumors were allowed to reach an approximate volume of ˜500 mm3. Animals were then randomized into treatment groups of 3 animals per time point and were dosed at 1 mg/kg (10% propylene glycol in water for injection for free conjugates, or 10% sucrose for nanoparticles), or 0.4 mg/kg for DM-1 (10% propylene glycol in water for injection). The 24 hour time point was used as a benchmark across conjugates.
Tumor DM-1 levels were determined by liquid chromatography mass spectrometry (LC/MS-MS). Four volumes of 5 mM 6-maleimidohexanoic acid to 1 part tumor v/w was added and homogenized for about 10-15 seconds with a handheld homogenizer. 10 μL of 500 mM Tris(2-carboxyethyl)phosphine was added to 100 uL of tumor homogenate, mixed well and incubated at room temperature for about 5-15 min. 200-300 uL of acetonitrile was used to precipitate proteins in tumor homogenate, samples were centrifuged for 5 min, and supernatant was injected onto LC/MS-MS system for DM-1 analysis.

The subject of data set [2] is NCI-H524 (ATCC) human lung cancer cells. The format is cell-based. The settings on record: Table 15. In short, it runs like this: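 NCI-H524 cells at 5,000/well were exposed to conjugate for 2 h from 20 μM top dose (ten-point, three-fold dilutions), washed, then grown a further 70 h. For competition, cells were pretreated 30 min with 100 μM octreotide. CellTiter Glo readout; % inhibition vs vehicle; four-parameter IC50.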

The next data set deals with SSTR2 (Homo sapiens, UniProt P30874). Description: Radioligand-receptor binding assay, [125I] labeled somatostatin, membranes from SSTR2 expressing CHO-K1 cells. More on the design: host or cells: CHO-K1. The procedure:
Two conjugates were assessed in an in vitro assay evaluating binding to the somatostatin receptor 2 (SSTR2). A radioligand-receptor binding assay was conducted at Eurofins Panlabs (Taiwan) to determine the affinity of conjugates described herein to the SSTR2. The assay measures binding of radiolabeled ligand, [^125I] labeled somatostatin, to human SSTR2 using membrane preparations from SSTR2 expressing CHO-K1 cells. Membranes were incubated with radiolabeled somatostatin (0.03 nM) in the presence of conjugate/compound starting at a dose of 10 uM using 6× serial dilutions to obtain a 10-pt curve. After a four-hour incubation, membranes were filtered and washed 3× and counted to determine the remaining [^125I] somatostatin bound to the receptor. IC50 values were determined by a non-linear, least squares regression analysis using MathIQ™ (ID Business Solutions Ltd., UK). The Ki values were calculated using the equation of Cheng and Prusoff (Cheng and Prusoff, Biochem. Pharmacol. 22: 3099-3108, 1973) using the observed IC50 of the tested conjugate/compound, the concentration of radioligand employed in the assay, and the historical values for the KD of the ligand obtained at Eurofins.

Setting [3] is: treated 2 hours, further incubated 70 hours, read-out: H524 IC50.
[4] abbreviates: read-out: H524 IC50+ 100 uM octreotide, 100 μM octreotide for 30 min, then conjugate 2 hours, 70 hours incubation.

Where two headings read alike, the source gives them in different places. Numbered stars: 1 amine (or outer) side, 2 acyl side, 3 side chain; on linkers, the order of the positions; unused ones are H or OH. Bridge positions count the residues as written; N and C are the ends. Square brackets hold non-standard residues; d marks the D form. Peptide text beside a SMILES is read from it. * marks the point of attachment. X1 = COc1cc2cc(c1Cl)N(C)C(=O)C[C@H](OC(=O)[C@H](C)N(C)C(=O)CCS*)[C@]1(C)O[C@H]1[C@H](C)[C@@H]1C[C@@](O)(NC(=O)O1)[C@H](OC)/C=C/C=C(\C)C2; N(3-sulfanylpropyl)dPhe = O=C([C@@H](Cc1ccccc1)N(CCCS[*:3])[*:1])[*:2]

SSTR2, sequence (P30874 whole entry): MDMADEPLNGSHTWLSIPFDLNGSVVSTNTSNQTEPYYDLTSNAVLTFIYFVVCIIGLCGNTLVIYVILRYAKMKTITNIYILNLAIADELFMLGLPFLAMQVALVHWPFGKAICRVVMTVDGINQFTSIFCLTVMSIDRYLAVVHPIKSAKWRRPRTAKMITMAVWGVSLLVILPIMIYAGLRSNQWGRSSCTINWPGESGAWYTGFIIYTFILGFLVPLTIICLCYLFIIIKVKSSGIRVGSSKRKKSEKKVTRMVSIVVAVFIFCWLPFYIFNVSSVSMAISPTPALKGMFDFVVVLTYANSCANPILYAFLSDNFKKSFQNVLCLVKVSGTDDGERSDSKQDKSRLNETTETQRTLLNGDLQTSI

With `COc1cc2cc(c1Cl)N(C)C(=O)C[C@H](OC(=O)[C@H](C)N(C)C(=O)CCS)[C@]1(C)O[C@H]1[C@H](C)[C@@H]1C[C@@](O)(NC(=O)O1)[C@H](OC)/C=C/C=C(\C)C2` [DM1, reference compound], the tumor volume entry in the data set on human NCI-H69 SCLC is recorded as “tumor volume increased rapidly”.
Take `COc1cc2cc(c1Cl)N(C)C(=O)C[C@H](OC(=O)[C@H](C)N(C)C(=O)CCSSCCOc1ccc(C[C@@H](N)C(=O)N[C@H]3CSSC[C@@H](C(=O)N[C@H](C(=O)O)[C@@H](C)O)NC(=O)[C@H]([C@@H](C)O)NC(=O)[C@H](CCCCN)NC(=O)[C@@H](Cc4c[nH]c5ccccc45)NC(=O)[C@H](Cc4ccc(O)cc4)NC3=O)cc1)[C@]1(C)O[C@H]1[C@H](C)[C@@H]1C[C@@](O)(NC(=O)O1)[C@H](OC)/C=C/C=C(\C)C2` [Conjugate 111]: the “H69 tumor DM-1 levels” value in data set [1] stood at 82.6 nM. The results for the 50% inhibitory concentration (IC50) in data set [2] (setting [3]) and in data set [2] (setting [4]) were 123 nM and 742 nM, respectively.
For `COc1cc2cc(c1Cl)N(C)C(=O)C[C@H](OC(=O)[C@H](C)N(C)C(=O)CCSSCCC(=O)NCCCOCCOCCOCCCNC(=O)CC[C@H]1C(=O)N[C@@H](Cc3ccc(O)cc3)C(=O)N[C@H](Cc3c[nH]c4ccccc34)C(=O)N[C@@H](CCCCN)C(=O)N[C@@H]([C@@H](C)O)C(=O)N[C@@H](Cc3ccccc3)C(=O)N1C)[C@]1(C)O[C@H]1[C@H](C)[C@@H]1C[C@@](O)(NC(=O)O1)[C@H](OC)/C=C/C=C(\C)C2` [Conjugate 18], the “H69 tumor DM-1 levels” value in data set [1] is recorded as 86.3 nM. The IC50 in data set [2] (setting [3]) worked out at 1480 nM; in data set [2] (setting [4]), 2160 nM.
On to `COc1cc2cc(c1Cl)N(C)C(=O)C[C@H](OC(=O)[C@H](C)N(C)C(=O)CCSSCCCN[C@H](Cc1ccccc1)C(=O)N[C@H]1CSSC[C@@H](C(=O)N[C@@H](Cc3c[nH]c4ccccc34)C(N)=O)NC(=O)[C@H](C(C)C)NC(=O)[C@H](CCCCN)NC(=O)[C@@H](Cc3c[nH]c4ccccc34)NC(=O)[C@H](Cc3ccc(O)cc3)NC1=O)[C@]1(C)O[C@H]1[C@H](C)[C@@H]1C[C@@](O)(NC(=O)O1)[C@H](OC)/C=C/C=C(\C)C2` [Conjugate 78] (H-[N(3-sulfanylpropyl)dPhe](X1)CY[dW]KVCW-NH2; disulfide 2-7), for which the “H69 tumor DM-1 levels” value in data set [1] is 36.2 nM. At SSTR2, this compound returned an inhibition constant (Ki) of 0.19 nM. For the same compound, the IC50 in data set [2] (setting [3]) is 124 nM; in data set [2] (setting [4]) it was 365 nM.
Consider `COc1cc2cc(c1Cl)N(C)C(=O)C[C@H](OC(=O)[C@H](C)N(C)C(=O)CCSSC[C@H](NC(=O)CC[C@H]1C(=O)N[C@@H](Cc3ccc(O)cc3)C(=O)N[C@H](Cc3c[nH]c4ccccc34)C(=O)N[C@@H](CCCCN)C(=O)N[C@@H]([C@@H](C)O)C(=O)N[C@@H](Cc3ccccc3)C(=O)N1C)C(=O)NC(C)(C)CC(C)(C)C)[C@]1(C)O[C@H]1[C@H](C)[C@@H]1C[C@@](O)(NC(=O)O1)[C@H](OC)/C=C/C=C(\C)C2` [Conjugate 16], for which the “H69 tumor DM-1 levels” value in data set [1] came to 96.4 nM. The IC50 is 223 nM in data set [2] (setting [3]) and 398 nM in data set [2] (setting [4]).
Turning to `COc1cc2cc(c1Cl)N(C)C(=O)C[C@H](OC(=O)[C@H](C)N(C)C(=O)CCSSC[C@H](NC(=O)[C@@H]1CSSC[C@H](NC(=O)[C@H](N)Cc3ccccc3)C(=O)N[C@@H](Cc3ccc(O)cc3)C(=O)N[C@H](Cc3c[nH]c4ccccc34)C(=O)N[C@@H](CCCCN)C(=O)N[C@@H]([C@@H](C)O)C(=O)N1)C(N)=O)[C@]1(C)O[C@H]1[C@H](C)[C@@H]1C[C@@](O)(NC(=O)O1)[C@H](OC)/C=C/C=C(\C)C2` [Conjugate 57], the “H69 tumor DM-1 levels” value in data set [1] stood at 243 nM. Also, the IC50 in data set [2] (setting [3]) came to 136 nM; in data set [2] (setting [4]) it was 1650 nM.
Take `COc1cc2cc(c1Cl)N(C)C(=O)C[C@H](OC(=O)[C@H](C)N(C)C(=O)CCSSCCNC(=O)[C@@H](NC(=O)[C@@H]1CSSC[C@H](NC(=O)[C@H](N)Cc3ccccc3)C(=O)N[C@@H](Cc3ccc(O)cc3)C(=O)N[C@H](Cc3c[nH]c4ccccc34)C(=O)N[C@@H](CCCCN)C(=O)N[C@@H]([C@@H](C)O)C(=O)N1)[C@@H](C)O)[C@]1(C)O[C@H]1[C@H](C)[C@@H]1C[C@@](O)(NC(=O)O1)[C@H](OC)/C=C/C=C(\C)C2` [Conjugate 35]: the “H69 tumor DM-1 levels” value in data set [1] worked out at 23.2 nM. In addition, the 50% inhibitory concentration (IC50) turned out to be 253 nM in data set [2] (setting [3]) and 1000 nM in data set [2] (setting [4]).
The matching figures for `CCCCCCCCN[C@H](Cc1ccccc1)C(=O)N[C@H]1CSSC[C@@H](C(=O)N[C@H](C(=O)NCCSSCCC(=O)N(C)[C@@H](C)C(=O)O[C@H]2CC(=O)N(C)c3cc(cc(OC)c3Cl)C/C(C)=C/C=C/[C@@H](OC)[C@@]3(O)C[C@H](OC(=O)N3)[C@@H](C)[C@@H]3O[C@@]23C)[C@@H](C)O)NC(=O)[C@H]([C@@H](C)O)NC(=O)[C@H](CCCCN)NC(=O)[C@@H](Cc2c[nH]c3ccccc23)NC(=O)[C@H](Cc2ccc(O)cc2)NC1=O` [Conjugate 55]: 95.3 nM, 47 nM and 395 nM.
For the compound `COc1cc2cc(c1Cl)N(C)C(=O)C[C@H](OC(=O)[C@H](C)N(C)C(=O)CCSSCCNC(=O)CC[C@H]1C(=O)N[C@@H](Cc3ccc(O)cc3)C(=O)N[C@H](Cc3c[nH]c4ccccc34)C(=O)N[C@@H](CCCCN)C(=O)N[C@@H]([C@@H](C)O)C(=O)N[C@@H](Cc3ccccc3)C(=O)N1C)[C@]1(C)O[C@H]1[C@H](C)[C@@H]1C[C@@](O)(NC(=O)O1)[C@H](OC)/C=C/C=C(\C)C2` [Conjugate 14], the “H69 tumor DM-1 levels” value in data set [1] was 70.1 nM. Further, the results for the half-maximal inhibitory concentration (IC50) in data set [2] (setting [3]) and in data set [2] (setting [4]) were 298 nM and 877 nM, respectively.
`COc1cc2cc(c1Cl)N(C)C(=O)C[C@H](OC(=O)[C@H](C)N(C)C(=O)CCSSCCCN[C@H](Cc1ccccc1)C(=O)N[C@H]1CSSC[C@@H](C(=O)N[C@H](C(=O)O)[C@@H](C)O)NC(=O)[C@H]([C@@H](C)O)NC(=O)[C@H](CCCCN)NC(=O)[C@@H](Cc3c[nH]c4ccccc34)NC(=O)[C@H](Cc3ccc(O)cc3)NC1=O)[C@]1(C)O[C@H]1[C@H](C)[C@@H]1C[C@@](O)(NC(=O)O1)[C@H](OC)/C=C/C=C(\C)C2` [Conjugate 80]: in data set [1], the “H69 tumor DM-1 levels” value came out at 91.2 nM. The figures for the half-inhibitory concentration (IC50) in data set [2] (setting [3]) and in data set [2] (setting [4]) were 152 nM and 157 nM, respectively.
